Laboratory results taken from patent publication US9505709B2, “Compositions and methods relating to ionic salts of peptides” (Thetis Pharmaceuticals LLC, priority 2014, dated 2016).

Experiments:
[1] = Stability analysis by 1H NMR of samples exposed to air and light; details: ambient temperature
Description: Stability analysis was performed using 1H NMR (400 MHz) with acetic acid-d4 at various time point (typically days 1, 14, 30 and 60) using samples exposed to air and light at ambient temperature (clear vials with no caps).

[2] = Oral pharmacokinetics (oral gavage), plasma free EPA or free DHA; assay type: in vivo, Sprague-Dawley rats; details: rat
Description: Experiments via Oral Gavage: Oral pharmacokinetic parameters of TP-212 (Lysyl-Lysine Bis-EPA), TP-312 (Lysyl-Lysine Bis-DHA), EPA-EE, EPA FFA and DHA FFA were determined in Sprague-Dawley rats. EPA-EE is 97% pure ethyl ester form of eicosapentaenoic acid. It is the principal polyunsaturated fatty acid in Vascepa, an Omega-3 compound approved in the U.S. for the treatment of severe hypertriglyceridemia. EPA FFA is 97% pure free fatty acid form of eicosapentaenoic acid and DHA FFA is 98% pure free fatty acid DHA. EPA FFA and DHA FFA are the two principal poly-unsaturated fatty acids in Epanova, an Omega-3 compound approved in the U.S. for the treatment of severe hypertriglyceridemia. The subject drugs were administered by oral gavage as an aqueous solution in de-ionized water to 6 Sprague-Dawley rats per group (3 males and 3 females). Rats were dosed at 40 mg/kg. Blood samples were obtained from each rat by jugular vein catheter. Samples were collected at pre-dose and at 0.25, 0.5, 1, 2, 4, 8, 12 and 18 hours post dose. Blood samples were centrifuged to separate red blood cells and the resulting plasma samples were analyzed for free EPA or free DHA. Free EPA or […] extracted from rat plasma with hexane at acidic condition without hydrolysis. Detection was by MS-MS monitoring of negative ion for EPA or DHA. Calculated pharmacokinetic values are mean values from 6 rats for each study drug.
(§1) For all figures and tables, the data are adjusted as follows for comparative purposes. First, the actual plasma levels are baseline adjusted. Thus, for each study arm, the pre-dose level (time=0) is subtracted from the actual plasma levels at each time point, with negative values adjusted to zero. Second, these baseline adjusted values are further adjusted to be molar dose equivalent on a comparative basis among the study arms with respect to EPA or DHA payload (i.e., as if equal amounts of free fatty acid EPA or DHA are administered in each study arm).

[3] = test system: Balb/C mice; assay: Ocular irritation after topical dosing to the cornea (hyperemia, squinting, discharge, lid swelling); assay type: in vivo; details: for Hyperemia: 3 μL drop in each eye four times daily for 3 days; for Hyperemia at last dose / final evaluation: concentrations that showed an initial increase or all tested, last dose / final evaluation (Day 3); for Concentration at which not irritating / well tolerated: topical to cornea four times daily for 3 days
Description: In an embodiment where the ophthalmic formulation is an aqueous formulation, it has been determined in mice that certain formulations can be administered to the surface of the eye without producing irritation that would make them unsuitable for such application. Irritation parameters of TP-211-1, TP-212-1, TP-311-1 and TP-312-1 related to hyperemia, squinting, and discharge were determined in Balb/C mice. Mice were dosed topically to the cornea using a calibrated micropipette, with a 3 μL drop of treatment in each eye four times daily for 3 consecutive days at various concentrations.
TP-211-1 is Lysyl-lysine EPA. TP-212-1 is Lysyl-lysine bis-EPA. TP-311-1 is Lysyl-lysine DHA. TP-312-1 is Lysyl-lysine bis-DHA. The study drugs were prepared using phosphate buffered saline (PBS) to reach target concentrations ranging from 0.1% to 1.0%.
The animals were monitored for scratching at the eye or any other abnormal behavior post-dose. Ocular exams were conducted on Days 1 and 3 with use of a Micron III camera system to take high resolution videos of the right eye of each animal Clinical signs including but not limited to hyperemia, discharge, lid swelling, and squinting were evaluated by trained personnel who was masked as to group assignment. Each clinical sign was graded on a scale of 0-4, with the exception of lid swelling which was graded on a scale of 0-2. Scores were averaged and are expressed as the mean±SEM for each group. Statistical significance was assessed between the treatment arms and the vehicle group. Any significance is noted by asterisks (*=p<0.05, **=p<0.01, ***=p<0.001).

[4] = Intravenous injection pharmacokinetics, plasma free EPA or free DHA; assay type: in vivo, Sprague-Dawley rats; details: rat
Description: Experiments via Intravenous Injection: TP-212 and TP-312 were administered by intravenous injection (20 mg/kg) to Sprague-Dawley rats (n=6/group—3 male and 3 female), and plasma was obtained from serial blood samples taken from each animal at scheduled times ([…]). Blood samples were centrifuged to separate red blood cells and the resulting plasma samples were analyzed for free EPA or free DHA. Free EPA or free DHA was extracted from rat plasma with hexane at acidic condition without hydrolysis. Detection was by MS-MS monitoring of negative ion for EPA or DHA. Calculated pharmacokinetic values are mean values from 6 rats for each study drug.
as §1

[5] = oral gavage 40 mg/kg, molar dose equivalent, baseline adjusted
[6] = 0.5% concentration in PBS, topical to cornea
[7] = 1.0% concentration in PBS, topical to cornea
[8] = intravenous injection 20 mg/kg, molar dose equivalent, baseline adjusted

## CC/C=C\C/C=C\C/C=C\C/C=C\C/C=C\CCCC(=O)O.CC/C=C\C/C=C\C/C=C\C/C=C\C/C=C\CCCC(=O)O.NCCCC[C@H](NC(=O)[C@@H](N)CCCCN)C(=O)O [Compound 2, (L,L) Lysyl-lysine bis-EPA]
[1]; Day 3
  Stability by NMR (amount of sample remaining relative to original sample): 1 (1 = >95%)
[1]; Day 14
  Stability by NMR (amount of sample remaining relative to original sample): 1 (1 = >95%)
[1]; Day 30
  Stability by NMR (amount of sample remaining relative to original sample): 1 (1 = >95%)
[1]; Day 60
  Stability by NMR (amount of sample remaining relative to original sample): 1 (1 = >95%)
[2]; oral gavage 40 mg/kg
  Tmax (free EPA): 30 min
[2]; oral gavage 40 mg/kg, 0 h (pre-dose), molar dose equivalent, baseline adjusted
  Plasma level of free EPA: 0 ng/mL
[2]; oral gavage 40 mg/kg, 0.25 h (15 min), molar dose equivalent, baseline adjusted
  Plasma level of free EPA: 300 ng/mL
[2]; oral gavage 40 mg/kg, 0.5 h (30 min), molar dose equivalent, baseline adjusted
  Plasma level of free EPA: 9500 ng/mL
[2]; oral gavage 40 mg/kg, 1 h (60 min), molar dose equivalent, baseline adjusted
  Plasma level of free EPA: 3900 ng/mL
[2]; oral gavage 40 mg/kg, 2 h (120 min), molar dose equivalent, baseline adjusted
  Plasma level of free EPA: 3200 ng/mL
[2]; oral gavage 40 mg/kg, 4 h (240 min), molar dose equivalent, baseline adjusted
  Plasma level of free EPA: 1500 ng/mL
[2]; oral gavage 40 mg/kg, 8 h, molar dose equivalent, baseline adjusted
  Plasma level of free EPA: 600 ng/mL
[2]; oral gavage 40 mg/kg, 12 h, molar dose equivalent, baseline adjusted
  Plasma level of free EPA: 0 ng/mL
[2]; oral gavage 40 mg/kg, 18 h, molar dose equivalent, baseline adjusted
  Plasma level of free EPA: 0 ng/mL
[2]; [5]
  AUC 0-1 hrs (free EPA): 4600 ng·h/mL
  AUC 0-4 hrs (free EPA): 12800 ng·h/mL
  AUC 0-18 hrs (free EPA): 18300 ng·h/mL
  Cmax (free EPA): 9500 ng/mL
[2]; oral gavage
  AUC over 18 hours (free EPA), times greater than EPA-EE: approximately 2.6 times
  AUC over 18 hours (free EPA), times greater than EPA-FFA: ~1.8 times
  Cmax (free EPA), times greater than EPA-EE: approximately 8.9 times
  Cmax (free EPA), times greater than EPA-FFA: ~7.4 times
[3]; 0.5% concentration in PBS
  Hyperemia: increase in hyperemia (but not squinting) after the first dose
[3]; [6]
  Squinting: not squinting
[3]; 1.0% concentration in PBS
  Hyperemia: increase in hyperemia (but not squinting) after the first dose
[3]; [7]
  Squinting: not squinting
[3]; concentrations of less than 1.0%, topical to cornea, repeat dosing
  Irritation, overall conclusion: may cause some initial irritation upon the very first installation, but the animals acclimated well to repeat dosing
[3]
  Hyperemia at last dose / final evaluation: returned to baseline levels by the final evaluation
[4]; intravenous injection 20 mg/kg
  Tmax (free EPA): 1 min
[4]; intravenous injection 20 mg/kg, 0 min, molar dose equivalent, baseline adjusted
  Plasma level of free EPA: 0 ng/mL
[4]; intravenous injection 20 mg/kg, 1 min, molar dose equivalent, baseline adjusted
  Plasma level of free EPA: 34500 ng/mL
[4]; intravenous injection 20 mg/kg, 5 min, molar dose equivalent, baseline adjusted
  Plasma level of free EPA: 6600 ng/mL
[4]; intravenous injection 20 mg/kg, 10 min, molar dose equivalent, baseline adjusted
  Plasma level of free EPA: 6400 ng/mL
[4]; intravenous injection 20 mg/kg, 15 min, molar dose equivalent, baseline adjusted
  Plasma level of free EPA: 11400 ng/mL
[4]; intravenous injection 20 mg/kg, 30 min, molar dose equivalent, baseline adjusted
  Plasma level of free EPA: 8800 ng/mL
[4]; intravenous injection 20 mg/kg, 60 min, molar dose equivalent, baseline adjusted
  Plasma level of free EPA: 4600 ng/mL
[4]; intravenous injection 20 mg/kg, 120 min, molar dose equivalent, baseline adjusted
  Plasma level of free EPA: 2300 ng/mL
[4]; intravenous injection 20 mg/kg, 240 min, molar dose equivalent, baseline adjusted
  Plasma level of free EPA: 1800 ng/mL
[4]; [8]
  AUC 0-1 hrs (free EPA): 8300 ng·h/mL
  AUC 0-4 hrs (free EPA): 15900 ng·h/mL
  Cmax (free EPA): 34500 ng/mL
[4]; intravenous vs oral gavage
  AUC over 1 hour (free EPA), times greater than EPApo: ~13.4 times
  AUC over 1 hour (free EPA), times greater than TP-212po: approximately 1.8 times
  AUC over 4 hours (free EPA), times greater than EPApo: ~5.1 times
  AUC over 4 hours (free EPA), times greater than TP-212po: approximately 1.2 times
  Cmax (free EPA), times greater than EPA-FFApo: ~27 times
  Cmax (free EPA), times greater than TP-212po: approximately 3.6 times

## CC/C=C\C/C=C\C/C=C\C/C=C\C/C=C\CCCC(=O)O.NCCCC[C@H](NC(=O)[C@@H](N)CCCCN)C(=O)O [Compound 1, (L,L) Lysyl-lysine EPA salt (mono)]
[1]; Day 3
  Stability by NMR (amount of sample remaining relative to original sample): 1 (1 = >95%)
[1]; Day 14
  Stability by NMR (amount of sample remaining relative to original sample): 1 (1 = >95%)
[1]; Day 30
  Stability by NMR (amount of sample remaining relative to original sample): 1 (1 = >95%)
[1]; Day 60
  Stability by NMR (amount of sample remaining relative to original sample): 1 (1 = >95%)
[3]; 0.1% concentration in PBS
  Hyperemia: maintained baseline levels of hyperemia throughout both evaluations
[3]; 0.25% concentration in PBS
  Hyperemia: maintained baseline levels of hyperemia throughout both evaluations
[3]; 0.5% concentration in PBS
  Hyperemia: some initial increase in hyperemia
[3]; all concentrations tested, topical to cornea
  Squinting: no statistically significant changes in squinting
[3]
  Hyperemia at last dose / final evaluation: returned to baseline levels by the last dose on Day 3
  Concentration at which not irritating / well tolerated: less than 0.5%

## CC/C=C\C/C=C\C/C=C\C/C=C\C/C=C\C/C=C\CCC(=O)O.NCCCC[C@H](NC(=O)[C@@H](N)CCCCN)C(=O)O [Compound 3, (L,L) Lysyl lysine DHA (mono)]
[1]; Day 3
  Stability by NMR (amount of sample remaining relative to original sample): 1 (1 = >95%)
[1]; Day 14
  Stability by NMR (amount of sample remaining relative to original sample): 1 (1 = >95%)
[1]; Day 30
  Stability by NMR (amount of sample remaining relative to original sample): 1 (1 = >95%)
[1]; Day 60
  Stability by NMR (amount of sample remaining relative to original sample): 1 (1 = >95%)
[3]; 0.5% concentration in PBS
  Hyperemia: did not cause any increase in hyperemia or squinting throughout
[3]; [6]
  Squinting: did not cause any increase in hyperemia or squinting throughout
[3]; 1.0% concentration in PBS
  Hyperemia: elevated hyperemia after the first dose administration
[3]; [7]
  Squinting: no increase in squinting levels
[3]
  Concentration at which not irritating / well tolerated: less than 1.0%
